The test system of one assay is plasma renin activity. Put plainly: Inhibition of evoked (drug-induced) elevation of plasma renin activity in conscious rats. The conditions noted are these: Rattus norvegicus, 30 min before provocative treatment; for inhibition in vivo at 25 mg/kg: 25 mg/kg oral. It counts as in vivo, male Wistar rats. As for the experimental part: Inhibition of evoked increase of plasma renin activity was determined by the following test.
Compounds were tested for their ability to prevent drug-induced elevation of plasma renin activity (PRA) in concious, male Wistar rats (180-200 g, Charles River Lab.). PRA elevation was induced by a combined oral provacative treatment (C) of hydrochlorothiazide (10 mg/kg) and 1-(3-benzoyl-3-mercapto-2-methylpropionyl)-L-proline, acetate (U.S. Pat. No. 4,226,775) (one mg/kg), prepared by compounding in a mortar and pestle with preboiled 3% starch suspension. This treatment provided the daily maximum PRA. The daily minimum PRA was obtained from rats given oral starch suspension (S) alone. The magnitude of drug effect on PRA elevation was ascertained from rats pretreated orally with test agent (D), at the indicated doses, 30 minutes prior to administration of provacative treatment (C). The test agent was also compounded in preboiled 3% starch suspension. The dose volumes for both pretreatment and provocative treatment were 2 ml/kg. One hour after provocative treatment the rats were sacrificed by decapitation and the first 3 seconds of blood collected in two chilled Vacutainer® tubes (Becton-Dickinson, Rutherford, N.J.) containing 40 μl of 150 mg/ml tripotassium EDTA. The plasma fractions, obtained by centrifugation for 20 minutes at 4° C. and 3000 G, were incubated (one of each pair at 37° C., the other at 4° C.) at pH 6.8 in 50 mM phosphate buffer to produce angiotensin I. The incubates contained peptidase inhibitors to prevent angiotensin I degradation and the incubation buffer contained one mg/ml lysozyme (Sigma Grade III) used as an antiabsorbant. The incubates were diluted 20 fold in cold 100 mM Tris buffer (pH adjusted to 7.4 with glacial acetic acid) also containing one mg/ml lysozyme, and then frozen. Diluted incubates were assayed within 3 days for angiotensin I content by radioimmunoassay according to a modification of the method of Haber, et al., J. Clin. Endocrin., 29, 1349-1355 (1969).
PRA is calculated as follows:
PRA(ng AI/hour/ml plasma)=PRA 37° C.-PRA 4° C.
Percent inhibition of PRA elevation is calculated as follows: [formula]

In assay [1] the test system is spontaneously hypertensive rats (SHR). The assay is described as follows: Diuretic activity in spontaneously hypertensive rats. It counts as in vivo, male spontaneously hypertensive rats (Okamoto strain). The conditions noted are these: 100 mg/kg by gavage with 0.9% sodium chloride loading 25 ml/kg; 0-5 hour urine. Here is the method: The diuretic activity of the compounds of this invention was also determined according to the method of Chan, P. S. and Poorvin, D., Sequential method for combined screening antihypertensive and diuretic agents in the same spontaneously hypertensive rat. Clinical and Experimental Hypertension, 1(6), 817-830 (1979).
Male spontaneously hypertensive rats (SHR) of Okamoto strain, 16 weeks old, Taconic Farms Inc. were used in the test. These rats were kept on Purina laboratory chow and tap water ad libitum for 8 weeks before use. One male adult rat (about 300 g) was dosed by gavage with a test compound at 100 mg/kg together with 0.9% sodium chloride loading at 25 ml/kg at zero hour. The test compound was suspended in 3% preboiled starch at 50 mg/ml. The rat was put in a metabolism cage. The 0-5 hour urine was collected and urinary sodium and potassium were determined using a Beckman Astra 4. The effects of representative compounds of the invention according to this test appear in Table III expressed in milliequivalents (mEQ) of urinary sodium and potassium excreted.

This note sets out measurements from patent US4767749A, “Ester of (triarylphosphoranylidene)carbamic acid having diuretic and ability to lower plasma renin properties” (American Cyanamid Company, priority 1986, dated 1988).

SMILES strings stand for the structures.

For `Cc1ccccc1P(=NC(=O)OCc1cccnc1)(c1ccccc1)c1ccccc1` [[(2-Methylphenyl)diphenylphosphoranylidene]carbamic acid, 3-pyridinylmethylester], the inhibition in vivo (in general, the drop in the measured response relative to a control, in per cent) at 25 mg/kg in the assay on plasma renin activity is 75%. Also, in assay [1], the “Potassium (urinary excretion)” value came to 0.62 mEQ/5 Hours, the “Sodium (urinary excretion)” value was found to be 1.48 mEQ/5 Hours and the “Volume (urine)” value worked out at 12.3 mL.

Consider `COC(=O)N=P(c1ccccc1)(c1ccccc1)c1ccccc1` [(Triphenylphosphoranylidene)carbamic acid, methyl ester], for which the inhibition in vivo at 25 mg/kg with plasma renin activity was 72%. In assay [1], the “Potassium (urinary excretion)” value is reported as 0.55 mEQ/5 Hours, the “Sodium (urinary excretion)” value was determined as 2.53 mEQ/5 Hours and the “Volume (urine)” value was found to be 23.3 mL.

In the assay on plasma renin activity, `COC(=O)N=P(c1ccccc1)(c1ccccc1)c1ccccc1C(F)(F)F` [[diphenyl[2-(trifluoromethyl)phenyl]phosphoranylidene]carbamic acid, methyl ester] showed an inhibition in vivo at 25 mg/kg of 49%. Also, in assay [1], the “Potassium (urinary excretion)” value was determined as 1.02 mEQ/5 Hours, the “Sodium (urinary excretion)” value worked out at 1.71 mEQ/5 Hours and the “Volume (urine)” value was 18.5 mL.

In turn, `CCOC(=O)N=P(c1ccccc1)(c1ccccc1)c1ccccc1C` [[(2-Methylphenyl)diphenylphosphoranylidene]carbamic acid, ethyl ester] displayed an inhibition in vivo at 25 mg/kg with plasma renin activity of 92%. For the same compound, in assay [1], the “Potassium (urinary excretion)” value was 0.78 mEQ/5 Hours, the “Sodium (urinary excretion)” value came out at 2.68 mEQ/5 Hours and the “Volume (urine)” value was found to be 25.5 mL.

For `CCOC(=O)N=P(c1ccccc1)(c1ccccc1C)c1ccccc1C` [[bis(2-methylphenyl)phenylphosphoranylidene]carbamic acid, ethyl ester], in the assay with plasma renin activity, at 25 mg/kg the inhibition in vivo was 54%. For the same compound, in assay [1], the “Potassium (urinary excretion)” value worked out at 0.73 mEQ/5 Hours, the “Sodium (urinary excretion)” value came to 1.46 mEQ/5 Hours and the “Volume (urine)” value amounted to 14.5 mL.

For `COC(=O)N=P(c1ccccc1)(c1ccccc1)c1ccccc1Cl` [[(2-chlorophenyl)diphenylphosphoranylidene]carbamic acid, methyl ester], in the assay with plasma renin activity, 25 mg/kg produced 98% inhibition in vivo. Besides, in assay [1], the “Potassium (urinary excretion)” value came to 0.94 mEQ/5 Hours, the “Sodium (urinary excretion)” value stood at 2.30 mEQ/5 Hours and the “Volume (urine)” value turned out to be 20.0 mL.

`C=CCOC(=O)N=P(c1ccccc1)(c1ccccc1)c1ccccc1` [(triphenylphosphoranylidene)carbamic acid, 2-propenyl ester] showed an inhibition in vivo at 25 mg/kg in the assay on plasma renin activity of 67%. Moreover, in assay [1], the “Potassium (urinary excretion)” value is recorded as 0.67 mEQ/5 Hours, the “Sodium (urinary excretion)” value was 1.17 mEQ/5 Hours and the “Volume (urine)” value worked out at 13.3 mL.

In the assay with plasma renin activity, `Cc1ccccc1P(=NC(=O)OCC1CC1)(c1ccccc1)c1ccccc1` [[(2-methylphenyl)diphenylphosphoranylidene]carbamic acid, cyclopropylmethyl ester] returned an inhibition in vivo at 25 mg/kg of 72%. In addition, in assay [1], the “Potassium (urinary excretion)” value was found to be 0.73 mEQ/5 Hours, the “Sodium (urinary excretion)” value is on record as 1.33 mEQ/5 Hours and the “Volume (urine)” value was determined as 12.0 mL.

`O=C(N=P(c1ccccc1)(c1ccccc1)c1ccccc1)OC1CCOC1` (centres unmarked) [(Triphenylphosphoranylidene)carbamic acid, tetrahydro-3-furanyl ester] returned an inhibition in vivo at 25 mg/kg in the assay on plasma renin activity of 69%. The same compound showed an inhibition in vivo at 50 mg/kg in the assay on plasma renin activity (50 mg/kg oral) of 49%. In the assay on plasma renin activity (100 mg/kg oral), the inhibition in vivo at 100 mg/kg came out at 85%. Also, in assay [1], the “Potassium (urinary excretion)” value turned out to be 0.70 mEQ/5 Hours, the “Sodium (urinary excretion)” value worked out at 1.10 mEQ/5 Hours and the “Volume (urine)” value was 14.8 mL.

`CCOC(=O)N=P(c1ccccc1)(c1ccccc1)c1ccccc1Cl` [[(2-chlorophenyl)diphenylphosphoranylidene]carbamic acid, ethyl ester]: the inhibition in vivo at 25 mg/kg in the assay with plasma renin activity amounted to 96%. In addition, in assay [1], the “Potassium (urinary excretion)” value worked out at 0.71 mEQ/5 Hours, the “Sodium (urinary excretion)” value was 2.05 mEQ/5 Hours and the “Volume (urine)” value came out at 19.5 mL.

In the assay on plasma renin activity, `CCCOC(=O)N=P(c1ccccc1)(c1ccccc1)c1ccccc1` [(Triphenylphosphoaranylidene)carbamic acid, n-propyl ester] came in with an inhibition in vivo at 25 mg/kg of 90%. For the same compound, in assay [1], the “Potassium (urinary excretion)” value was determined as 0.48 mEQ/5 Hours, the “Sodium (urinary excretion)” value stood at 1.37 mEQ/5 Hours and the “Volume (urine)” value is 12.5 mL.

In the assay on plasma renin activity, `COC(=O)N=P(c1ccccc1)(c1ccccc1)c1c(C)cccc1C` [[(2,6-dimethylphenyl)diphenylphosphoranylidene]carbamic acid, methyl ester] registered an inhibition in vivo at 25 mg/kg of 68%. Also, in assay [1], the “Potassium (urinary excretion)” value is recorded as 0.84 mEQ/5 Hours, the “Sodium (urinary excretion)” value is listed as 1.33 mEQ/5 Hours and the “Volume (urine)” value came to 12.8 mL.

`O=C(N=P(c1ccccc1)(c1ccccc1)c1ccccc1)OCc1cccnc1` [(triphenylphosphoranylidene)carbamic acid, 3-pyridinylmethyl ester] came in with an inhibition in vivo at 25 mg/kg with plasma renin activity of 40%. In assay [1], the “Potassium (urinary excretion)” value was determined as 1.00 mEQ/5 Hours, the “Sodium (urinary excretion)” value stood at 1.60 mEQ/5 Hours and the “Volume (urine)” value was 14.5 mL.

As to `CCOC(=O)N=P(c1ccccc1)(c1ccccc1)c1ccccc1C(F)(F)F` [[diphenyl[2-(trifluoromethyl)phenyl]phosphoranylidene]carbamic acid, ethyl ester], 25 mg/kg produced 75% inhibition in vivo in the assay on plasma renin activity. For the same compound, in assay [1], the “Potassium (urinary excretion)” value is 0.91 mEQ/5 Hours, the “Sodium (urinary excretion)” value is 2.12 mEQ/5 Hours and the “Volume (urine)” value is 19.3 mL.

In turn, `Cc1ccccc1P(=NC(=O)OC1CCOC1)(c1ccccc1)c1ccccc1` (centres unmarked) [[(2-Methylphenyl)diphenylphosphoranylidene]carbamic acid, tetrahydro-3-furanyl ester] returned an inhibition in vivo at 25 mg/kg in the assay on plasma renin activity of 93%. Moreover, in assay [1], the “Potassium (urinary excretion)” value is on record as 0.97 mEQ/5 Hours, the “Sodium (urinary excretion)” value was found to be 2.71 mEQ/5 Hours and the “Volume (urine)” value came to 22.3 mL.
